Measured values reported in the NIST ThermoML archive (doi:10.1016/j.jct.2004.05.008).
Numbers after ± are expanded uncertainties.

What was measured:
[1] = Crystal
[2] = molar heat capacity at constant pressure; settings: 101.33 kPa, Crystal

O=C1OC(=O)C2=C1CCCC2 [3,4,5,6-tetrahydrophthalic anhydride]
Triple point temperature [1]: 343.46 ± 0.25 K | molar heat capacity at constant pressure ([2]; 80.34 K): 56.23 ± 0.63 J/K/mol | molar heat capacity at constant pressure ([2]; 83.47 K): 56.18 ± 0.63 J/K/mol | molar heat capacity at constant pressure ([2]; 86.53 K): 56.31 ± 0.64 J/K/mol | molar heat capacity at constant pressure ([2]; 89.58 K): 56.4 ± 0.64 J/K/mol | molar heat capacity at constant pressure ([2]; 92.48 K): 56.87 ± 0.69 J/K/mol | molar heat capacity at constant pressure ([2]; 95.3 K): 57.18 ± 0.7 J/K/mol | molar heat capacity at constant pressure ([2]; 98.08 K): 57.46 ± 0.7 J/K/mol | molar heat capacity at constant pressure ([2]; 100.82 K): 57.84 ± 0.7 J/K/mol | molar heat capacity at constant pressure ([2]; 103.56 K): 57.96 ± 0.71 J/K/mol | molar heat capacity at constant pressure ([2]; 106.09 K): 58.31 ± 0.71 J/K/mol | molar heat capacity at constant pressure ([2]; 108.63 K): 58.53 ± 0.71 J/K/mol | molar heat capacity at constant pressure ([2]; 111.12 K): 58.74 ± 0.71 J/K/mol | molar heat capacity at constant pressure ([2]; 113.61 K): 59.12 ± 0.71 J/K/mol | molar heat capacity at constant pressure ([2]; 116.02 K): 59.31 ± 0.71 J/K/mol | molar heat capacity at constant pressure ([2]; 118.43 K): 59.66 ± 0.71 J/K/mol | molar heat capacity at constant pressure ([2]; 120.75 K): 60.05 ± 0.72 J/K/mol | molar heat capacity at constant pressure ([2]; 123.08 K): 60.42 ± 0.72 J/K/mol | molar heat capacity at constant pressure ([2]; 125.35 K): 60.99 ± 0.72 J/K/mol | molar heat capacity at constant pressure ([2]; 127.64 K): 61.14 ± 0.73 J/K/mol | molar heat capacity at constant pressure ([2]; 129.84 K): 61.87 ± 0.73 J/K/mol | molar heat capacity at constant pressure ([2]; 132.12 K): 62.27 ± 0.74 J/K/mol | molar heat capacity at constant pressure ([2]; 134.33 K): 62.87 ± 0.74 J/K/mol | molar heat capacity at constant pressure ([2]; 136.53 K): 63.57 ± 0.75 J/K/mol | molar heat capacity at constant pressure ([2]; 138.65 K): 64.15 ± 0.75 J/K/mol | molar heat capacity at constant pressure ([2]; 140.81 K): 64.74 ± 0.76 J/K/mol | molar heat capacity at constant pressure ([2]; 142.92 K): 65.78 ± 0.77 J/K/mol | molar heat capacity at constant pressure ([2]; 145.08 K): 66.49 ± 0.77 J/K/mol | molar heat capacity at constant pressure ([2]; 147.12 K): 67.22 ± 0.77 J/K/mol | molar heat capacity at constant pressure ([2]; 149.15 K): 68.03 ± 0.78 J/K/mol | molar heat capacity at constant pressure ([2]; 151.27 K): 69 ± 0.79 J/K/mol | molar heat capacity at constant pressure ([2]; 153.3 K): 69.87 ± 0.8 J/K/mol | molar heat capacity at constant pressure ([2]; 155.3 K): 70.76 ± 0.81 J/K/mol | molar heat capacity at constant pressure ([2]; 157.37 K): 71.32 ± 0.81 J/K/mol | molar heat capacity at constant pressure ([2]; 159.37 K): 72.03 ± 0.81 J/K/mol | molar heat capacity at constant pressure ([2]; 161.36 K): 72.91 ± 0.82 J/K/mol | molar heat capacity at constant pressure ([2]; 163.27 K): 73.95 ± 0.83 J/K/mol | molar heat capacity at constant pressure ([2]; 165.22 K): 74.97 ± 0.84 J/K/mol | molar heat capacity at constant pressure ([2]; 167.13 K): 76.01 ± 0.85 J/K/mol | molar heat capacity at constant pressure ([2]; 169.12 K): 76.73 ± 0.85 J/K/mol | molar heat capacity at constant pressure ([2]; 171.05 K): 77.91 ± 0.86 J/K/mol | molar heat capacity at constant pressure ([2]; 172.94 K): 78.5 ± 0.86 J/K/mol | molar heat capacity at constant pressure ([2]; 174.85 K): 79.78 ± 0.87 J/K/mol | molar heat capacity at constant pressure ([2]; 176.72 K): 80.51 ± 0.88 J/K/mol | molar heat capacity at constant pressure ([2]; 178.63 K): 81.53 ± 0.89 J/K/mol | molar heat capacity at constant pressure ([2]; 180.46 K): 82.71 ± 0.9 J/K/mol | molar heat capacity at constant pressure ([2]; 182.28 K): 83.6 ± 0.91 J/K/mol | molar heat capacity at constant pressure ([2]; 184.11 K): 84.61 ± 0.91 J/K/mol | molar heat capacity at constant pressure ([2]; 185.95 K): 85.45 ± 0.92 J/K/mol | molar heat capacity at constant pressure ([2]; 187.77 K): 86.62 ± 0.93 J/K/mol | molar heat capacity at constant pressure ([2]; 189.63 K): 87.81 ± 0.94 J/K/mol | molar heat capacity at constant pressure ([2]; 191.38 K): 88.82 ± 0.95 J/K/mol | molar heat capacity at constant pressure ([2]; 193.21 K): 89.85 ± 0.96 J/K/mol | molar heat capacity at constant pressure ([2]; 194.95 K): 91.18 ± 0.96 J/K/mol | molar heat capacity at constant pressure ([2]; 196.74 K): 92.52 ± 0.98 J/K/mol | molar heat capacity at constant pressure ([2]; 198.56 K): 93.84 ± 0.99 J/K/mol | molar heat capacity at constant pressure ([2]; 200.32 K): 95.12 ± 1 J/K/mol | molar heat capacity at constant pressure ([2]; 202.04 K): 96 ± 1 J/K/mol | molar heat capacity at constant pressure ([2]; 203.79 K): 97.45 ± 1 J/K/mol | molar heat capacity at constant pressure ([2]; 205.5 K): 99.08 ± 1 J/K/mol | molar heat capacity at constant pressure ([2]; 207.28 K): 100.34 ± 1 J/K/mol | molar heat capacity at constant pressure ([2]; 208.94 K): 101.59 ± 1.1 J/K/mol | molar heat capacity at constant pressure ([2]; 210.65 K): 102.87 ± 1.1 J/K/mol | molar heat capacity at constant pressure ([2]; 212.31 K): 103.87 ± 1.1 J/K/mol | molar heat capacity at constant pressure ([2]; 214.01 K): 105.32 ± 1.1 J/K/mol | molar heat capacity at constant pressure ([2]; 215.67 K): 106.26 ± 1.1 J/K/mol | molar heat capacity at constant pressure ([2]; 217.29 K): 107.56 ± 1.1 J/K/mol | molar heat capacity at constant pressure ([2]; 218.95 K): 108.78 ± 1.1 J/K/mol | molar heat capacity at constant pressure ([2]; 220.53 K): 109.96 ± 1.1 J/K/mol | molar heat capacity at constant pressure ([2]; 222.27 K): 111.19 ± 1.1 J/K/mol
